These results are taken from patent publication US4266048A, “Synthesis of analogs of 3'-phosphoadenosine 5'-phosphosulfate (PAPS)” (The United States of America as represented by the …, priority 1978, dated 1981).

Each structure is given as a SMILES string. Structures can show the parent of a compound that is named as a salt.

The target of data set [1] is T1, bovine adrenal estrogen sulfotransferase (EC 2.8.2.4) (Bos taurus, UniProt P19217).
T1 sequence (P19217 1-295): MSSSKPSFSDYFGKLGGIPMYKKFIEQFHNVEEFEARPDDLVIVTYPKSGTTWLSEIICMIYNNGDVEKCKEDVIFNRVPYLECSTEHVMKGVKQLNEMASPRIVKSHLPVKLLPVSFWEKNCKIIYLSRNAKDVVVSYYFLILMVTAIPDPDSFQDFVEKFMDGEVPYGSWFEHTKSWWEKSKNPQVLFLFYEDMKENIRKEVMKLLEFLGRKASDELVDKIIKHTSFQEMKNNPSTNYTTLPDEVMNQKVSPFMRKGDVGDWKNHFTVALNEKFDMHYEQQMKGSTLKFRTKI
The data set is described as follows: Sulfate transfer to [6,7-3H2]estrone by Compounds IVa and Va (biological activity). Type of data set: biochemical. Here is the method: The biological activity of IV (like PAPS) may be measured by sulfate transfer to [6,7-^3 H2 ]estrone as mediated by bovine adrenal estrone sulfotransferase (3'-phosphoadenylylsulfate:estrone 3-sulfotransferase, EC 2.8.2.4) and is identical with that obtained with a sample of IV prepared by an established biochemical procedure.
Biological activity of IVa and Va was determined by sulfate transfer to [6,7-^3 H2 ]estrone in the presence of bovine adrenal estrogen sulfotransferase (E.C. 2.8.2.4).
Bovine spleen phosphodiesterase II (E.C. 3.1.4.18) and ribonuclease T2 were purchased from Sigma Chemical Company. Bovine adrenal estrogen sulfotransferase (E.C. 2.8.2.4.) was isolated and purified as described by Adams et al, Biochim. Biophys. Acta, 370:160-188 (1974). [^35 S]PAPS and [6,7-^3 H2 ]-estrone were purchased from New England Nuclear Corp.
Sulfation of estrone with synthetic Compound IVa (PAPS) was determined using the procedure described in the article by Rozhin et al, ante. Sulfation by Compound Va was as follows. The ability of Compound Va to donate its sulfate to estrone was determined with [6,7-^3 H2 ]estrone (1.3·10^6 dpm/4 nmol) by modification of the above-mentioned Rozhin et al method in which Compound Va (0.11 mM) […] for Compound IVa.
After termination of the incubation, excess free [^3 H]estrone was extracted three times with 0.3 ml of ethyl ether and the aqueous sample adjusted to 0.5 ml with redistilled methanol. An aliquot (25 μl) was applied, together with 15 μg of methanolic estrone sulfate marker, to type SG chromatography media (Gelman Instrument Co., Ann Arbor, Michigan) and developed with chloroform/acetone/acetic acid (110:35:6). Estrone sulfate was visualized by spraying with methylene blue and the spot punched out with a cork borer and counted in 10 ml of Bray's dioxane scintillation solution. […] The amount of steroid sulfate ester produced was calculated utilizing the specific activity of [^3 H]estrone.

Data set [2] addresses T1, bovine adrenal estrogen sulfotransferase (EC 2.8.2.4). The data set is described as follows: Relative sulfurylation rate (RSR): enzymic transfer of sulfate from analogs IV and V to estrone at saturating steroid. Conditions: for RSR (in words): sulfurylation of estrone relative to IVa (RSR=1); for reduction in RSR relative to IVa: 200 μM, may be a result of inhibition by coproducts; for calculated level of coproduct produced: nucleotide at 200 μM.

Data set [3] has the same target. The data set is described as follows: Inhibition / affinity of desulfurylated nucleotides (coproducts) on estrogen sulfotransferase. In kind it is biochemical. Also on record: Ki data from Horwitz et al 1977. The following applies: product of the reaction. From the text: ^b Data taken from Tables II and III of Horwitz et al, Biochim.
Data set [4] shares this target. Also on record: Ki data from Horwitz et al 1977. The following applies: cited from earlier work; for enzyme affinity / effect of coproduct (in words) / Ki of coproduct: estrogen sulfotransferase; for enzyme affinity / effect of coproduct (in words): discussion of Ki values; for Ki of coproduct: unit not given.
Another data set can be described thus: Storage stability. In kind it is physicochemical. Conditions: 50% ethanol at -20° C. Here is the method:
Fractions containing Compound IVa were pooled and the buffer was removed in the usual manner. The product was redissolved in approx. 3 ml of H2 O and the solution was adjusted to pH 7 with dilute NH4 OH. Treatment of a small aliquot of the latter with an equal volume of 0.2 M HCl at 37° C. for 1.75 h gave adenosine 3',5'-diphosphate as the sole detectable product in Systems S1 and S2. Compound IVa was homogeneous in S1, S2, E1 and E2. […] Compound IVa gave yields of 68-72% based on Compound IIa.

`Nc1ncnc2c1ncn2[C@@H]1O[C@H](COP(=O)(O)OS(=O)(=O)O)[C@@H](O)[C@H]1OP(=O)(O)O` [2'PAdo5'PS, adenosine 2'-phosphate 5'-phosphosulfate]: the “activity relative to the natural isomer” value in data set [1] (Iso-PAPS, sulfate transfer to [6,7-3H2]estrone) is on record as “approximately one-third”. Further, in data set [1] (sulfate transfer to estrone), the “activity relative to the natural isomer (IVa)” value is “approximately one-third”. In data set [2] (expected value at 200 μM concentration), the “RSR at 200 μM (expected)” value is listed as ~0.29. Further, the saturation concentration in data set [2] (stated in Table III footnote c) was found to be 100 µM.
With `C[C@]12CC[C@@H]3c4ccc(OS(=O)(=O)O)cc4CC[C@H]3[C@@H]1CCC2=O` [Estrone sulfate], the “effect on the estrogen sulfotransferase reaction” value in data set [3] is listed as “little or no effect”.
On to `Nc1ncnc2c([C@@H]3O[C@H](COP(=O)(O)O)[C@@H](OP(=O)(O)O)[C@H]3O)n[nH]c12` [3'PFo5'P, formycin (7-amino-3-(β-D ribofuranosyl)pyrazolo-[4,3-d]-pyrimidine) 3',5'-diphosphate], for which the “enzyme affinity / effect of coproduct (in words)” value (from here on “enzyme affinity / effect”) in data set [4] is given as “intermediate affinity”.
Regarding `Nc1ncnc2c1ccn2[C@@H]1O[C@H](COP(=O)(O)O)[C@@H](O)[C@H]1OP(=O)(O)O` [2'P(7-deaza-Ado)5'P], in data set [4], the “enzyme affinity / effect” value is recorded as “has an effect on the estrogen sulfotransferase reaction” and the “Ki of coproduct” value is “compares favorably with that of 3'PAdo5'P”.
Regarding `Nc1ncnc2c1ncn2[C@@H]1O[C@H](COP(=O)(O)OS(=O)(=O)O)[C@@H](OP(=O)(O)O)[C@H]1O` [3'PAdo5'PS, adenosine 3'-phosphate 5'-phosphosulfate], the “saturation curves for IV from two sources” value in data set [1] (IV 15-100 μM, [6,7-3H2]estrone 100 μM) is reported as “essentially superimposable”. The “activity compared with PAPS from enzymatic/biochemical procedure” value in data set [1] (sulfate transfer to [6,7-3H2]estrone, listed as IV) is reported as “virtually identical”. In addition, the storage stability result in the data set “Storage stability” is “kept indefinitely”.
In the case of `O=c1[nH]cnc2c1ncn2[C@@H]1O[C@H](COP(=O)(O)OS(=O)(=O)O)[C@@H](OP(=O)(O)O)[C@H]1O` [3'PIno5'PS, inosine 3'-phosphate 5'-phosphosulfate], the “RSR (in words)” value in data set [2] is “low”; in data set [2] (listed as IVd), “only minimal”.
As to `Nc1ncnc2c1ccn2[C@@H]1O[C@H](COP(=O)(O)OS(=O)(=O)O)[C@@H](OP(=O)(O)O)[C@H]1O` [3'P(7-deaza-Ado)5'PS, tubercidin 3'-phosphate 5'-phosphosulfate], in data set [2], the “reduction in RSR relative to IVa” value is given as 14-15% and the “calculated level of coproduct produced” value was 4 µM. Besides, the “RSR (in words)” value in data set [2] (listed as 3'PTu5'PS) is recorded as “compare favorably with active sulfate itself”. In addition, in data set [2] (listed as IVe), the “RSR (in words)” value is reported as “the largest”.
`Nc1ncnc2c1ncn2[C@@H]1O[C@H](COP(=O)(O)O)[C@@H](O)[C@H]1OP(=O)(O)O` [2'PAdo5'P, adenosine 2',5'-diphosphate]: in data set [4] (data taken from Horwitz et al, Biochim. Biophys. Acta, 480:376-381 (1977)), the “Ki of desulfurylated nucleotide (coproduct)” value is on record as “.infin”. Moreover, in data set [4], the “enzyme affinity / effect” value was “weak and devoid of activity”; the “Ki of coproduct” value is “.infin”.
`O=P(O)(O)OC[C@H]1O[C@@H](n2cnc3c(O)ncnc32)[C@H](O)[C@@H]1OP(=O)(O)O` [3'PIno5'P, inosine 3',5'-diphosphate]: the “enzyme affinity / effect” value in data set [4] is recorded as “substantial loss of enzyme affinity”.
For the compound `O=P(O)(O)O[C@H]1[C@@H](O)[C@H](n2cnc3cncnc32)O[C@@H]1COP(=O)(O)OS(=O)(=O)O` [3'PPuo5'PS, nebularine 3'-phosphate 5'-phosphosulfate], the “RSR (in words)” value in data set [2] is given as “low”; in data set [2] (listed as IVc) it was “only minimal”.
For the compound `O=P(O)(O)OC[C@H]1O[C@@H](n2cnc3cncnc32)[C@H](O)[C@@H]1OP(=O)(O)O` [3'PPuo5'P, nebularine (9-β-D-ribofuranosylpurine) 3',5'-diphosphate], the “enzyme affinity / effect” value in data set [4] is listed as “substantial loss of enzyme affinity”.
With `Nc1ncnc2c1ccn2[C@@H]1O[C@H](COP(=O)(O)OS(=O)(=O)O)[C@@H](O)[C@H]1OP(=O)(O)O` [2'P(7-deaza-Ado)5'PS, tubercidin 2'-phosphate 5'-phosphosulfate], the “RSR (in words)” value in data set [2] is recorded as “relatively low”.
For `Nc1ncnc2c([C@@H]3O[C@H](COP(=O)(O)OS(=O)(=O)O)[C@@H](OP(=O)(O)O)[C@H]3O)n[nH]c12` [3'PFo5'PS, formycin 3'-phosphate 5'-phosphosulfate], the “RSR (in words)” value in data set [2] is listed as “modest capacity to sulfurylate estrone”.
`Nc1ncnc2c1ccn2[C@@H]1O[C@H](COP(=O)(O)O)[C@@H](OP(=O)(O)O)[C@H]1O` [3'P(7-deaza-Ado)5'P, tubercidin (4-amino-7-(β-D-ribofuranosyl)-7H-pyrrolo-[2,3-d]-pyrimidine) 3',5'-diphosphate]: the “enzyme affinity / effect” value in data set [4] is listed as “enhanced affinity”.
As for `Nc1ncnc2c1nc(Br)n2[C@@H]1O[C@H](COP(=O)(O)OS(=O)(=O)O)[C@@H](OP(=O)(O)O)[C@H]1O` [3'P8-BrAdo5'PS, 8-bromoadenosine 3'-phosphate 5'-phosphosulfate], in data set [2], the “reduction in RSR relative to IVa” value is reported as 14-15%, the “calculated level of coproduct produced” value was 4 µM and the “RSR (in words)” value was “compare favorably with active sulfate itself”. For the same compound, the “RSR (in words)” value in data set [2] (listed as IVb) is “the largest”.
